The values below come from PMC4358768 (Journal of medicinal chemistry, 2011).

One data set concerns the target T1, human e-NPP1 (Homo sapiens, UniProt P22413).
T1 sequence (P22413 1-925): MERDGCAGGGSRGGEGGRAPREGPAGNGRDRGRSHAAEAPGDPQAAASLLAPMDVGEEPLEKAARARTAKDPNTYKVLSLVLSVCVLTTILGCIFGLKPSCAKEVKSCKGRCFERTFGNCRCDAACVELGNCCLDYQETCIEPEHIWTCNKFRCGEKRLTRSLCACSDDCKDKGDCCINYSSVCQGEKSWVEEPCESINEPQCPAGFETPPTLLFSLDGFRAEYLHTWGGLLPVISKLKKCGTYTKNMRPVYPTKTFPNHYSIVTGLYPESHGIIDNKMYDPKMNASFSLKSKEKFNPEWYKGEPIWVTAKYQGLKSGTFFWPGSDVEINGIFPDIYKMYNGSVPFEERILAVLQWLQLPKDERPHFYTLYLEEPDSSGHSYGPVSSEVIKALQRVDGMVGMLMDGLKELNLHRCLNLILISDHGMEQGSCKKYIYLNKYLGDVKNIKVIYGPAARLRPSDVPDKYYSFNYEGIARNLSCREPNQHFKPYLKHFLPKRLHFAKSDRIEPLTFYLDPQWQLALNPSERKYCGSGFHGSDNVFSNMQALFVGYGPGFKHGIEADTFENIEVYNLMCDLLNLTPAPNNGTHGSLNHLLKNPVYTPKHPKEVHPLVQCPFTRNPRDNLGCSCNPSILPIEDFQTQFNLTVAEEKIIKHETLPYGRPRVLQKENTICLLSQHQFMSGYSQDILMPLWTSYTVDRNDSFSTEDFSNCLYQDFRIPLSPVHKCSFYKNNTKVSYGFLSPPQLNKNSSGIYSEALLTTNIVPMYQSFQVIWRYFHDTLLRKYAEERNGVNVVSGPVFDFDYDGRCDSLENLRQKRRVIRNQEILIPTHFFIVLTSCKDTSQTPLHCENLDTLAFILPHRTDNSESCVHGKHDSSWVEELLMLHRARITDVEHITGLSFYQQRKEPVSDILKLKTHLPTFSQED
Nature of the data set: Hydrolysis of dinucleotides by human e-NPP1. The note with it: over 20 min at 37 °C, pH 8.5. Type of data set: in vitro ADME.

The test system of another data set is P2Y2R. The note with it: read-out: EC50 at P2Y2R; cited from earlier work.
A further data set addresses rP2Y1-GFP receptor. To be noted: read-out: EC50 at P2Y1R (rP2Y1-GFP receptor); cited from earlier work.
Another data set addresses tP2Y1 receptor (Meleagris gallopavo, UniProt P49652). Nature of the data set: [Ca2+]i elevation in 1321N1 astrocytoma cells expressing turkey P2Y1 receptor. Type of data set: cell-based. The note with it: 1321N1 astrocytoma cells stably transfected with turkey P2Y1 receptor, fura-2, 37 °C; for EC50: read-out: EC50 for [Ca2+]i elevation, P2Y1.

The structures appear in SMILES notation.

Chain of tP2Y1 receptor (P49652 whole entry): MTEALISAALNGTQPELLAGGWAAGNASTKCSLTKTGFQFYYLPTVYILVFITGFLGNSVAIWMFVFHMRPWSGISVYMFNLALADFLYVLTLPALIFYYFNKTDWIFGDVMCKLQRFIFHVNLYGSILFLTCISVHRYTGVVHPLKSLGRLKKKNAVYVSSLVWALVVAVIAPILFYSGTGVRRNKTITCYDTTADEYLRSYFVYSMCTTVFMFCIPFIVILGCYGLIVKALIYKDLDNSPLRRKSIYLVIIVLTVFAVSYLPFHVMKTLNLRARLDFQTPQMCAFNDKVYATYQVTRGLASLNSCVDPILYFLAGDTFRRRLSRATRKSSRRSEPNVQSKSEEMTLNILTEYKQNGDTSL

Turning to `BP(=O)(OC[C@H]1O[C@@H](n2ccc(=O)[nH]c2=O)[C@H](O)[C@@H]1O)OP(=O)(O)OP(=O)(O)OC[C@H]1O[C@@H](n2ccc(=O)[nH]c2=O)[C@H](O)[C@@H]1O` (some centres unmarked) [Analogue 11A, P^1-Borano-P^1,P^3-5′-diuridinetriphosphate], the “percentage of the compound hydrolyzed by human e-NPP1” value at human e-NPP1 was “completely resistant to hydrolysis”.

A word on the EC50: it is the concentration that produces a half-maximal response. Turning to `O=c1ccn([C@@H]2O[C@H](COP(=O)(O)OP(=O)(O)OP(=O)(O)O)[C@@H](O)[C@H]2O)c(=O)[nH]1` [UTP, uridine 5′-triphosphate], in the data set with P2Y2R, the EC50 was 15 nM.

Consider `CSc1nc(N)c2ncn([C@@H]3O[C@H](COP(=O)(O)OP(=O)(O)O)[C@@H](O)[C@H]3O)c2n1` [Analogue 2-SMe-ADP], for which, at rP2Y1-GFP receptor, the EC50 is 100 nM.

Take `BP(=O)(OC[C@H]1O[C@@H](n2ccc(=O)[nH]c2=O)[C@H](O)[C@@H]1O)OP(=O)(O)OP(=O)(O)OP(=O)(O)OC[C@H]1O[C@@H](n2ccc(=O)[nH]c2=O)[C@H](O)[C@@H]1O` (some centres unmarked) [Analogue 13A, P^1-Borano-P^1,P^4-5′-diuridinetetraphosphate]: at tP2Y1 receptor, the EC50 was greater than 100 µM.

Take `[BH3-][P+](O)(OP(=O)(O)OC[C@H]1O[C@@H](n2cnc3c(N)ncnc32)[C@H](O)[C@@H]1O)OP(=O)(O)OP(=O)(O)OC[C@H]1O[C@@H](n2ccc(=O)[nH]c2=O)[C@H](O)[C@@H]1O` (some centres unmarked) [Analogue 8, P^3-Borano-P^1,P^4-5′-uridine-5′-adenosinetetraphosphate]: the “EC50 for [Ca2+]i elevation, P2Y1” value on tP2Y1 receptor (listed as Ap4(β-B)U) was “inactive”.

On to `[BH3-][P+](O)(OP(=O)(O)OC[C@H]1O[C@@H](n2ccc(=O)[nH]c2=O)[C@H](O)[C@@H]1O)OP(=O)(O)OP(=O)(O)OC[C@H]1O[C@@H](n2ccc(=O)[nH]c2=O)[C@H](O)[C@@H]1O` (some centres unmarked) [Analogue 7A, P^2-Borano-P^1,P^4-di(5′-uridine)tetraphosphate], for which the concentration for a half-maximal effect (EC50) at tP2Y1 receptor was greater than 100 µM.

`[BH3-][P+](O)(OP(=O)(O)OC[C@H]1O[C@@H](n2cnc3c(N)ncnc32)[C@H](O)[C@@H]1O)OP(=O)(O)OP(=O)(O)OC[C@H]1O[C@@H](n2ccc(=O)[nH]c2=O)[C@H](O)[C@@H]1O` (some centres unmarked) [Analogue 8A, P^3-Borano-P^1,P^4-5′-uridine-5′-adenosinetetraphosphate]: at tP2Y1 receptor, the EC50 was greater than 100 µM.

As to `BP(=O)(OC[C@H]1O[C@@H](n2cnc3c(N)ncnc32)[C@H](O)[C@@H]1O)OP(=O)(O)OP(=O)(O)OC[C@H]1O[C@@H](n2cnc3c(N)ncnc32)[C@H](O)[C@@H]1O` (some centres unmarked) [Analogue 10A, P^1-Borano-P^1,P^3-5′-diadenosinetriphosphate], the “percentage of the compound hydrolyzed by human e-NPP1” value at human e-NPP1 is “completely resistant to hydrolysis”.
